Among the data in patent US20060252807A1, “Novel ortho-terphenyl inhibitors of p38 kinase and methods of treating inflammatory disorders” (Kalypsys, Inc., priority 2005, published 2006) are IC50 values, retold here.

T1 sequence (Q16539 whole entry): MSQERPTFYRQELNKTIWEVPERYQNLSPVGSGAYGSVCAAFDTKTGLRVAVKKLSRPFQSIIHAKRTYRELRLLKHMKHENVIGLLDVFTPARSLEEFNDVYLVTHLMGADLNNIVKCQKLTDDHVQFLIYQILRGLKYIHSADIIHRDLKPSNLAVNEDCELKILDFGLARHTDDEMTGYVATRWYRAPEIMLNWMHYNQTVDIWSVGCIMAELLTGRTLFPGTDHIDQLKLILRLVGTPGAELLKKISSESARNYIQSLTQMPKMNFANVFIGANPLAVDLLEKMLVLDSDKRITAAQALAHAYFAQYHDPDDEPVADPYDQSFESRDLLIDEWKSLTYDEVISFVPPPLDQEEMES

The assay concerns the target T1, active p38 alpha enzyme (Upstate Biotechnology) (Homo sapiens, UniProt Q16539).
T1 construct: purchased Upstate Biotechnology
Kind of assay: p38α biochemical assay (ATP turnover, luminescent detection, Cambrex PKlight). The following applies: p38α kinase; Table 1 Biological Activity. An outline of the steps:
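Compounds in DMSO are added to active p38 alpha with MapkapK2 whole protein and ATP at 1.4 uM final. Reactions then run for 2 hours at 30C. A luminescent reagent is added last to quantify total ATP consumed.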
With `CC(C)NC(=O)c1csc(-c2c(-c3ccc(F)cc3)n[nH]c2C2CCN(C(=O)c3ccc(Cl)c([N+](=O)[O-])c3)CC2)n1` [Example 988], the IC50 (in general, the midpoint of a concentration-inhibition curve) was not above 1000 nM.
In turn, `CC(C)NC(=O)c1csc(-c2c(-c3ccc(F)cc3)n[nH]c2C2CCN(C(=O)c3cc(Cl)ccc3[N+](=O)[O-])CC2)n1` [Example 989] yielded an IC50 of more than 1000 nM.
For the compound `CC(C)NC(=O)c1csc(-c2c(-c3ccc(F)cc3)n[nH]c2C2CCN(C(=O)c3cccc(Br)n3)CC2)n1` [Example 990], the IC50 was more than 1000 nM.
The value for `CC(C)NC(=O)c1csc(-c2c(-c3ccc(F)cc3)n[nH]c2C2CCN(C(=O)c3cncc(Br)c3)CC2)n1` [Example 991] was not above 1000 nM; that for `CC(C)NC(=O)c1csc(-c2c(-c3ccc(F)cc3)n[nH]c2C2CCN(C(=O)c3cc(F)c(F)cc3[N+](=O)[O-])CC2)n1` [Example 992] was more than 1000 nM; that for `CC(C)NC(=O)c1csc(-c2c(-c3ccc(F)cc3)n[nH]c2C2CCN(C(=O)Cc3ccc(C(F)(F)F)cc3)CC2)n1` [Example 993] was more than 1000 nM.
Next, `CC(C)Cc1ccc(C(C)C(=O)N2CCC(c3[nH]nc(-c4ccc(F)cc4)c3-c3nc(C(=O)NC(C)C)cs3)CC2)cc1` (centres unmarked) [Example 994]: more than 1000 nM; `CC(C)NC(=O)c1csc(-c2c(-c3ccc(F)cc3)n[nH]c2C2CCN(C(=O)c3cc(Cl)c(O)c(Cl)c3)CC2)n1` [Example 995]: more than 1000 nM.
The value for `CC(C)NC(=O)c1csc(-c2c(-c3ccc(F)cc3)n[nH]c2C2CCN(C(=O)c3c(F)c(F)c(F)c(F)c3F)CC2)n1` [Example 996] was more than 1000 nM; that for `COc1cc(OC)c(C(=O)N2CCC(c3[nH]nc(-c4ccc(F)cc4)c3-c3nc(C(=O)NC(C)C)cs3)CC2)c(OC)c1` [Example 997] was more than 1000 nM; that for `COc1cc(OC)c(C(=O)N2CCC(c3[nH]nc(-c4ccc(F)cc4)c3-c3nc(C(=O)NC(C)C)cs3)CC2)cc1OC` [Example 998] was more than 1000 nM.
In turn, `COc1cc(C(=O)N2CCC(c3[nH]nc(-c4ccc(F)cc4)c3-c3nc(C(=O)NC(C)C)cs3)CC2)cc(OC)c1OC` [Example 999] had a half-maximal inhibitory concentration (IC50) of more than 1000 nM.
Next, `COc1ccc(C(=O)N2CCC(c3[nH]nc(-c4ccc(F)cc4)c3-c3nc(C(=O)NC(C)C)cs3)CC2)c(OC)c1OC` [Example 1000]: more than 1000 nM; `CC(C)NC(=O)c1csc(-c2c(-c3ccc(F)cc3)n[nH]c2C2CCN(C(=O)c3ccccc3Cc3ccccc3)CC2)n1` [Example 1001]: more than 1000 nM.
The value for `CC(C)NC(=O)c1csc(-c2c(-c3ccc(F)cc3)n[nH]c2C2CCN(C(=O)c3cccc(Oc4ccccc4)c3)CC2)n1` [Example 1002] was more than 1000 nM.
The compound `CC(C)NC(=O)c1csc(-c2c(-c3ccc(F)cc3)n[nH]c2C2CCN(C(=O)c3ccccc3Oc3ccccc3)CC2)n1` [Example 1003] gave an IC50 of more than 1000 nM.
The value for `CC(C)NC(=O)c1csc(-c2c(-c3ccc(F)cc3)n[nH]c2C2CCN(C(=O)c3ccc(Oc4ccccc4)cc3)CC2)n1` [Example 1004] was more than 1000 nM; that for `CC(C)NC(=O)c1csc(-c2c(-c3ccc(F)cc3)n[nH]c2C2CCN(C(=O)c3ccc(-c4ccc(O)cc4)cc3)CC2)n1` [Example 1005] was more than 1000 nM; that for `Cc1cc(C(=O)N2CCC(c3[nH]nc(-c4ccc(F)cc4)c3-c3nc(C(=O)NC(C)C)cs3)CC2)ccc1Br` [Example 1006] was more than 1000 nM.
`Cc1ccc(C(=O)N2CCC(c3[nH]nc(-c4ccc(F)cc4)c3-c3nc(C(=O)NC(C)C)cs3)CC2)cc1Br` [Example 1007] showed an IC50 of more than 1000 nM.
Next, `CC(C)NC(=O)c1csc(-c2c(-c3ccc(F)cc3)n[nH]c2C2CCN(C(=O)Cc3ccc(Br)cc3)CC2)n1` [Example 1008]: more than 1000 nM; `CC(C)NC(=O)c1csc(-c2c(-c3ccc(F)cc3)n[nH]c2C2CCN(C(=O)C3CCCN3C(=O)OC(C)(C)C)CC2)n1` (centres unmarked) [Example 1009]: more than 1000 nM; `CC(C)NC(=O)c1csc(-c2c(-c3ccc(F)cc3)n[nH]c2C2CCN(C(=O)/C=C/c3ccccc3C(F)(F)F)CC2)n1` [Example 1010]: more than 1000 nM.
Next, `CCOc1ccc2ccccc2c1C(=O)N1CCC(c2[nH]nc(-c3ccc(F)cc3)c2-c2nc(C(=O)NC(C)C)cs2)CC1` [Example 1011]: more than 1000 nM; `CC(C)NC(=O)c1csc(-c2c(-c3ccc(F)cc3)n[nH]c2C2CCN(C(=O)C(NC(=O)OC(C)(C)C)C(C)C)CC2)n1` (centres unmarked) [Example 1012]: more than 1000 nM; `CC(C)NC(=O)c1csc(-c2c(-c3ccc(F)cc3)n[nH]c2C2CCN(C(=O)C(NC(=O)OC(C)(C)C)C(C)C)CC2)n1` (centres unmarked) [Example 1013]: more than 1000 nM.
Next, `CC(C)NC(=O)c1csc(-c2c(-c3ccc(F)cc3)n[nH]c2C2CCN(C(=O)CCc3cccc(C(F)(F)F)c3)CC2)n1` [Example 1014]: more than 1000 nM.
In turn, `CC1=NN(c2ccc(C(=O)N3CCC(c4[nH]nc(-c5ccc(F)cc5)c4-c4nc(C(=O)NC(C)C)cs4)CC3)cc2)C(=O)C1` [Example 1015] returned an IC50 of more than 1000 nM.
The value for `Cc1nc(Br)sc1C(=O)N1CCC(c2[nH]nc(-c3ccc(F)cc3)c2-c2nc(C(=O)NC(C)C)cs2)CC1` [Example 1016] was more than 1000 nM; that for `CC(C)NC(=O)c1csc(-c2c(-c3ccc(F)cc3)n[nH]c2C2CCN(C(=O)c3c4ccccc4cc4ccccc34)CC2)n1` [Example 1017] was more than 1000 nM; that for `CC(C)NC(=O)c1csc(-c2c(-c3ccc(F)cc3)n[nH]c2C2CCN(C(=O)c3cc(C(C)C)cc(C(C)C)c3O)CC2)n1` [Example 1018] was more than 1000 nM.
The value for `CC(=O)NC(Cc1ccc(O)cc1)C(=O)N1CCC(c2[nH]nc(-c3ccc(F)cc3)c2-c2nc(C(=O)NC(C)C)cs2)CC1` (centres unmarked) [Example 1019] was more than 1000 nM.
`CC(C)NC(=O)c1csc(-c2c(-c3ccc(F)cc3)n[nH]c2C2CCN(C(=O)c3c(Cl)cc(Cl)cc3Cl)CC2)n1` [Example 1020]: the IC50 is more than 1000 nM.
Regarding `COc1cc(C(=O)N2CCC(c3[nH]nc(-c4ccc(F)cc4)c3-c3nc(C(=O)NC(C)C)cs3)CC2)c([N+](=O)[O-])cc1OC` [Example 1021], the IC50 was more than 1000 nM.
On to `CC(C)NC(=O)c1csc(-c2c(-c3ccc(F)cc3)n[nH]c2C2CCN(C(=O)c3ccc(OCc4ccccc4)cc3)CC2)n1` [Example 1022], for which the half-inhibitory concentration (IC50) is more than 1000 nM.
Next, `CC(C)NC(=O)c1csc(-c2c(-c3ccc(F)cc3)n[nH]c2C2CCN(C(=O)CCc3ccccc3Br)CC2)n1` [Example 1023]: more than 1000 nM; `CC(C)NC(=O)c1csc(-c2c(-c3ccc(F)cc3)n[nH]c2C2CCN(C(=O)CCc3cccc(Br)c3)CC2)n1` [Example 1024]: more than 1000 nM.
Next, `CC(C)NC(=O)c1csc(-c2c(-c3ccc(F)cc3)n[nH]c2C2CCN(C(=O)C3CCCCN3C(=O)OC(C)(C)C)CC2)n1` (centres unmarked) [Example 1025]: more than 1000 nM.
Next, `CC(C)NC(=O)c1csc(-c2c(-c3ccc(F)cc3)n[nH]c2C2CCN(C(=O)c3ccc(Oc4cccc(O)c4)cc3)CC2)n1` [Example 1026]: more than 1000 nM; `COc1ccc2cc(C(C)C(=O)N3CCC(c4[nH]nc(-c5ccc(F)cc5)c4-c4nc(C(=O)NC(C)C)cs4)CC3)ccc2c1` (centres unmarked) [Example 1027]: more than 1000 nM; `CC(C)NC(=O)c1csc(-c2c(-c3ccc(F)cc3)n[nH]c2C2CCN(C(=O)C3CN(C(=O)OC(C)(C)C)CCN3)CC2)n1` (centres unmarked) [Example 1028]: more than 1000 nM.
